Series [1] has as its system mouse embryos. The experiment in a line: Fixed-cell analysis of embryos after ~16 h exposure from the 8-cell stage (mitotic index, misaligned chromosomes, Mad2). Format: cell-based. Particulars: for metaphase cells with multiple misaligned chromosomes: morulae, 16 hour exposure. The method, then:
(§1) Embryo collection, culture and chemical treatments. All experiments were approved by the Centre de Recherche du Centre Hospitalier de l'Université de Montréal (CRCHUM) Comité Institutionnel de Protection des Animaux (CIPA). Two-cell embryos were obtained from superovulated 2-3-month-old CD-1 female mice mated with CD-1 males. Embryos were collected in M2 media and cultured in KSOM media drops covered in mineral oil at 37° C. in 5% CO2. For chemical treatments, media was supplemented with the following compounds: AZ3146 (20 μM), GSK923295 (various concentrations), nocodazole (various concentrations), Cytochalasin B (5 μg/ml), MG132 (25 μM), proTAME (various concentrations). All drug stocks are dissolved in DMSO. For experiments involving proTAME, embryos were cultured without oil in 500 μL of media in 4-well plates.
(§2) Z-stack images of embryos (˜50 μm) with step size 2 μm were obtained at a time interval of 30 sec for experiments concerning H2BRFP only, 2 min for H2B:RFP-GAP43:GFP, and 3 min H2B:RFP-Mad1:EGFP experiments. For live-cell experiments at two-cells, eight cell, morula and blastocyst, imaging was started at ˜48 h, 72 h, 84 h and ˜96 h post-hCG administration and mating, respectively. For immunofluorescence embryos were fixed in 2% PFA in PBS (20 min) and permeabilised in 0.25% Triton™ X-100 in PBS (10 min), for Mad2 immunofluorescence embryos were fixed for 15 min in PHEM buffer containing 2% PFA and 0.05% Triton™ X-100, and permeabilised in 0.05% Triton™ X in PHEM buffer for 15 min. Blocking was performed in 3% bovine serum albumin in PBS, for 1 hr at 37° C. or overnight at 4° C. Primary antibodies used were rabbit anti-Mad2 (1:300), mouse anti-alpha-Tubulin (1:1000), anti-rabbit and anti-mouse AlexaFluor secondaries were used at 1:1000 dilution. Alexa-555-Phalloidin (1:300) and Hoechst (1:1000) were used to visualize F-actin and DNA, respectively. Briefly, immunofluorescence confocal imaging was performed on a Leica™ SP8 microscope using a 63×1.4 NA oil objective lens, using a 1.5 μm optical section and acquiring Z-stacks with a step size of 1.5 μm, described in more detail in (Vázquez-Diez et al., 2018). In fixed-cell experiments involving GSK923295 and nocodazole embryos were exposed from the 8-cell stage, ˜72 h post-hCG and mating for ˜16 h and immediately fixed. Blastocyst immunofluorescence analysis was performed at late blastocyst stage, ˜120 h post-hCG.
(§3) All image analysis was performed using Fiji software. Time-lapse Z-stacks were examined to determine mitosis duration and identify chromosome alignment and segregation errors. Spindle length measurements were performed measuring the distance between spindle poles, using Pythagoras' theorem where spindle poles were located on different Z-slices. Mad2 Immunofluorescence was quantified by subtracting nuclear envelope and background maximum grey values. To calculate cell volume for each cell at metaphase, areas delineated by the cell membrane (GAP43:GFP signal) were manually traced and measured at each Z-slice, the sum of the areas was multiplied by the step size (2 μm). All data analysis was performed using GraphPad™ Prism, statistical test used were accordingly noted in figures, α=0.05.

The subject of series [2] is mouse embryos. Put plainly: Cytoplasmic removal and live imaging of H2B:RFP-GAP43:GFP embryos (mitosis duration vs cell volume). The following applies: 10 nM nocodazole, un-manipulated or cytoplasmically reduced. The format is cell-based. The method, then:
(§4) All micromanipulations were performed on a Leica™ DM14000 inverted microscope fitted with Narashige micromanipulators. […] Embryos where thoroughly washed in over a dozen drops of M2 media prior to transfer and incubation in equilibrated KSOM medium for at least 2 hours prior to imaging to allow them to recover from the cytoplasmic removal procedure. Microinjections were performed as described previously (Nakagawa and FitzHarris, 2016; Vázquez-Diez and FitzHarris, 2018; Vázquez-Diez et al., 2016). cRNA was synthesized using mMessenger Machine kit (Ambion) as previously (Nakagawa et al., 2017; Vázquez-Diez et al., 2018), from the following plasmids; pRN4-H2B:RFP, psC2-GAP43:GFP, MajSatTALE:mClover (pTALYM3B15)(Miyanari et al., 2013).
All imaging was performed on a Leica™ SP8 confocal microscope with HyD detectors. For live imaging embryos were placed in a heated top-stage incubator with CO2 supply and imaged with a 20×0.75 NA objective as previously described (Vázquez-Diez et al., 2016). […]
All image analysis was performed using Fiji software. […] Mad2 Immunofluorescence was quantified by subtracting nuclear envelope and background maximum grey values. To calculate cell volume for each cell at metaphase, areas delineated by the cell membrane (GAP43:GFP signal) were manually traced and measured at each Z-slice, the sum of the areas was multiplied by the step size (2 μm). […]

In series [3] the test system is mouse embryos. The experiment in a line: Live imaging of chromosome segregation dynamics in H2B:RFP-expressing embryos. The format is cell-based. Particulars: for change in mitosis duration: 10 nM nocodazole. The method, then: as §1
(§5) All imaging was performed on a Leica™ SP8 confocal microscope with HyD detectors. For live imaging embryos were placed in a heated top-stage incubator with CO2 supply and imaged with a 20×0.75 NA objective as previously described (Vázquez-Diez et al., 2016). All imaging was performed in ˜2 μL drops under mineral oil, for experiments involving proTAME, embryos were cultured in Ibidi micro-insert wells mounted on a glass-bottom dish with distilled water and the inventors' setup was modified to provide humidified CO2 gas supply, previously described in extensive detail (Vázquez-Diez et al., 2018).
as §2, §3

The subject of series [4] is mouse embryos. Put plainly: Culture to blastocyst and immunofluorescence analysis (development, cell numbers, micronuclei per cell). The format is cell-based. The following applies: for number of micronuclei compared to controls: P<0.01; for micronuclei per cell in blastocyst: 2-cell stage to blastocyst, controls 0.022, P<0.05. The procedure: as §1, §2, §3
For the next series, the system named is oocytes. The experiment in a line: Polar body extrusion (PBE) of meiosis-I in microinjected oocytes. The format is cell-based, mouse. The following applies: oocytes microinjected with Mad2 MO vs Control MO.
For series [5], the system named is mouse embryos. Put plainly: Live imaging of H2B:RFP and Mad1:EGFP-expressing embryos. The format is cell-based. Particulars: 500 nM GSK923295. The procedure:
as §4
as §5, with “2018). […]” for “2018).”

[6] abbreviates: proTAME 0.01 nM-100 nM from the 2-cell stage.
The mark [7] stands for this setting: 500 nM GSK923295, 8-16 cell transition.

In the case of `COC(=O)Nc1nc2ccc(C(=O)c3cccs3)cc2[nH]1` [nocodazole], the mitotic index in the series with mouse embryos [1] (100 nM nocodazole, 16-hour exposure) stood at 40%; with mouse embryos [1] (1 μM nocodazole, 16-hour exposure) it was 95%. Moreover, in the series on mouse embryos [1] (nocodazole-treated cells), the Mad2 at kinetochores entry is listed as “Mad2 was evident at kinetochores”. Also, the “change in mitosis duration” value was “not in morulae” in the series on mouse embryos [2] (morulae); “extended mitosis at the two-cell stage” in the series with mouse embryos [2] (two-cell stage); “prolonged mitosis appreciably” in the series on mouse embryos [3] (blastocysts (~32-64 cell stage)); “only a minimal extension of mitosis” in the series on mouse embryos [3] (morulae (8-16 cell stage)); “prolonged mitosis appreciably” in the series with mouse embryos [3] (two-cell stage). Also, the Anaphase lagging chromosomes in the series on mouse embryos [3] (nocodazole-treated (10 nM) morulae) is given as 19 % of divisions.
As to AZ3146, the “reversal of nocodazole-induced mitotic arrest” value in the series on mouse embryos [1] (100 nM nocodazole and 20 μM AZ3146) is reported as “the arrest was reversible”. Besides, in the series on mouse embryos [4] (AZ3146 (20 μM)), the blastocyst cell numbers result is on record as “Neither treatment prevented development to blastocyst or altered cell numbers” and the development to blastocyst entry is “Neither treatment prevented development to blastocyst”. The “number of micronuclei compared to controls” value in the series with mouse embryos [4] (AZ3146-treated embryos) is on record as “doubled”. The same compound had a duration of mitosis in the series on mouse embryos [3] (20 μM AZ3146, 16-32C transition, control 53±3 mins, P<0.0001) of 33 ± 1 min. The “chromosomes remaining misaligned at anaphase onset” value in the series on mouse embryos [3] (20 μM AZ3146, control 24%, P<0.0001) was found to be 63%.
Consider “Mad2 MO: morpholino oligonucleotide against Mad2, 5′-GCTCTCGGGCGAGCTGCTGTGCCAT-3′ (Gene tools LLC) (all phosphorodiamidate morpholino (PMO))”, for which, in the series on oocytes, the “timing of meiosis-I (polar body extrusion)” value is “characteristic acceleration of meiosis-I”. For the same compound, in the series on mouse embryos [4] (Mad2 MO microinjected), the blastocyst cell numbers entry was “Neither treatment prevented development to blastocyst or altered cell numbers” and the development to blastocyst result is listed as “Neither treatment prevented development to blastocyst”. Further, the “number of micronuclei compared to controls” value in the series with mouse embryos [4] (Mad2 MO-injected embryos vs Control MO) is listed as “doubled”.
For the compound `COC(=O)[C@H](CCCN/C(=N\C(=O)OCOC(=O)Cc1ccccc1)NC(=O)OCOC(=O)Cc1ccccc1)NS(=O)(=O)c1ccc(C)cc1` [proTAME], the “micronuclei per cell in blastocyst” value in the series with mouse embryos [4] (10 nM proTAME) was found to be 0.013 micronuclei per cell; in the series on mouse embryos [4] ("nM" proTAME (figure missing)), 0.012 micronuclei per cell. For the same compound, the blastocyst cell number entry in the series with mouse embryos [4] (setting [6]) is “did not affect blastocyst cell number”. Also, the “embryo development to blastocyst” value is “permissive of development to blastocyst” in the series with mouse embryos [4] (setting [6]) and “prevented embryo development to blastocyst” in the series with mouse embryos [4] (proTAME 1-10 μM from the 2-cell stage). Also, in the series with mouse embryos [3] (10 nM proTAME vs DMSO), the “extension of mitosis duration” value was 19%. Besides, in the series with mouse embryos [3] (10 nM proTAME vs DMSO), the “increase in duration of mitosis” value is roughly 10 min. Moreover, the “incidence of misaligned chromosomes at anaphase onset” value with mouse embryos [3] (10 nM proTAME, control 28%, P=0.025) is 16%. The compound further had a duration of mitosis in the series with mouse embryos [3] (10 nM proTAME, morula stage, control 51.7±1.4, P<0.0001) of 61.7 ± 2.3 min.
For the compound `CC(C)Oc1ccc(C(=O)N[C@H](CNC(=O)CN(C)C)Cc2ccc(-c3cn4cccc([C@H](C)O)c4n3)cc2)cc1Cl` [GSK923295], in the series on mouse embryos [1] (500 nM GSK923295), the mitotic index was determined as 23% and the “metaphase cells with multiple misaligned chromosomes” value amounted to 93%. In addition, in the series on mouse embryos [1] (1 μM nocodazole + 500 nM GSK923295, 16 hr), the “mitotic arrest with simultaneous nocodazole” value is given as “mounted a robust mitotic arrest”. Also, in the series with mouse embryos [1] (5 μM GSK923295), the mitotic index was 12% and the “metaphase cells with multiple misaligned chromosomes” value is 100%. In the series on mouse embryos [3] (setting [7]), the “number of severely misaligned chromosomes at anaphase onset (span, all cases)” value was “at least one, and as many as nine”; the “severely misaligned chromosomes at anaphase onset (mean)” value stood at 3.6±0.3 per cell. Further, in the series on mouse embryos [3] (500 nM GSK, eight- to sixteen-cell division), the “NEBD to metaphase and metaphase to anaphase times” value is “extended”. In addition, the “misaligned chromosomes at anaphase onset harbouring Mad1:GFP at kinetochores” value in the series with mouse embryos [5] is 80%. The “misaligned chromosomes at anaphase onset (mean)” value with mouse embryos [5] (H2B:RFP and Mad1:EGFP-expressing embryos) was 3.5±0.4 per cell.
As to `Cc1ncc([N+](=O)[O-])n1CCOC(=O)NC(Nc1ncccn1)C(Cl)(Cl)Cl` (stereo not drawn) [APCin], the micronuclei entry in the series with mouse embryos [4] (APCin 10 μM) is reported as “reduction in micronuclei”.

The values above are taken from US20200080052A1, “METHOD OF REDUCING CHROMOSOME SEGREGATION ERROR IN CELLS OF THE EARLY EMBRYO” (CENTRE HOSPITALIER DE L'UNIVERSITÉ DE MONTRÉAL, priority 2018, published 2020).
